Seven molecules from US9050275B2, “Methods of screening for and treating autism spectrum disorders and compositions for same” (Theta Biomedical Consulting & Development Co., Inc., priority 2009, dated 2015) can be followed below.

“And” between values parts separate entries of the source, which are not always exact repeats. Identical values can stand only once. Like-named read-outs stand apart in the source and are kept apart here. Where no end group is shown, it is not given here.

Data set [1] concerns LAD2 human mast cells. In words: cells. Particulars: for VEGF release / SP-induced VEGF release / HgCl2-induced VEGF release: 24 hours; for inhibition at 100 µM: Homo sapiens, LAD2, luteolin 0.1 mM, 10 min pretreatment. Type of data set: cell-based. The procedure: (§1) LAD2 human mast cells were cultured in serum-free media (StemPro-34; GIBCO, Grand Island, N.Y.) supplemented with 2 mM L-glutamine, 100 IU/ml penicillin, 50 μg/ml streptomycin, and 100 ng/ml recombinant human Stem Cell Factor (rhSCF, obtained from Amgen, Inc., Thousand Oaks, Calif.). For optimal cell growth, LAD2 cell density was maintained between 0.5×106 and 1×10^6 cells/ml. Cell viability was assessed at 1 and 24 hr using trypan blue (0.3%) exclusion.
LAD2 cells were washed with DPBS and suspended in complete culture medium. LAD2 cells (2×10^5 cells/well/200 μl) were plated in 96 well flat bottom Falcon cell culture plates (Becton Dickinson, Franklin Lakes, N.J.) and were pre-incubated for 15 min at 37° C. in 5% CO2 atmosphere. The cells were then incubated with either SP (2 μM), HgCl2 (10 μM), or thimerosal (1, 10 μM) for 24 hours at 37° C. Control cells were treated with equal volume of only culture medium. For the inhibition experiments, thimerosal or methyl thiosalicylate were added together with the triggers, while luteolin was added 10 min before the triggers. After the reaction time, plates were centrifuged and the supernatant was gently collected from the wells and stored at −20° C. until VEGF was measured by Enzyme-Linked Immunosorbent Assay (ELISA) using a commercial kit (R&D Systems, Minneapolis, Minn.). The minimum detectable level of VEGF was 5 pg/ml.

The next data set relates to Male BALB/6 mice. The data set can be described thus: Brain blood vessel leakage by Evans blue extravasation. It counts as in vivo.
Data set [2] concerns human cultured LAD2 cells. In words: Release of mitochondrial DNA from LAD2 mast cells (real time PCR). Type of data set: cell-based. Particulars: 5 min pretreatment with luteolin; neurotensin stimulation. On the technique in general: Quantitative PCR measures a nucleic acid by following its amplification.
Text: Total DNA was extracted from supernatant fluids of cultured LAD2 cells using Qiagen DNA Micro extraction kit (Qiagen, Calif.). Mitochondrial specific DNA for Cytochrome B (Mt-CytB) and 7S (Mt-7S) was detected and quantified by Real time PCR using Taqman assay (Mt-7S: Hs02596861_s1; Mt-CYB: Hs02596867_s1; GAPDH: Hu, VIC, TAMRA, Applied Biosystems, Calif.). GAPDH DNA was used to exclude any genomic “contamination.”
The subject of the next data set is mast cells. The data set can be described thus: Inhibition of mast cells by quercetin. It counts as cell-based. The settings on record: Mast cell.
In data set [3] the test system is LAD2 human mast cells. Particulars: thimerosal 10 μM, 24 hours, trypan blue exclusion. The procedure:
as §1

[4] abbreviates: substance 10 μM added together with SP (2 μM).

Experimental for Male BALB/6 mice: Male BALB/6 mice (6 weeks old, Jackson Laboratories, Bar Harbor, Me.) were injected in their tail vein with 0.2 ml of Evans blue (0.4%). Binding of Evans blue to the albumin found in the blood prevents Evans blue from escaping the circulation and constitutes a good biomarker from extravasation in brain parenchyma.
Mice were anesthetized with a single intraperitoneal injection of ketamine/xylazine (10 mg/kg and 80 mg/kg body weight, each), an intracardiac catheter was inserted in the left ventricle, blood was withdrawn, and 10 ml normal saline was administered intracardially to wash any Evans blue from the systemic circulation. The mice were then decapitated and the whole brain was removed. For brain extravasated Evans blue measurements, the brains were first weighed and the Evans blue was then extracted in 1 ml of N,N-dimethylformamide overnight at 55° C. and the optical density was measured at 620 nm using a PerkinElmer Luminescence Spectrophotometer (Perkin Elmer, Norwalk, Conn.). EB concentration was calculated using a standard curve and values were normalized to the tissue weight and expressed as arbitrary units/mg of tissue. Five animals per group were estimated to be sufficient for significant differences given the variability (<50%) observed. […] Values were then compared using the non-parametric Mann-Whitney U test. Significance is denoted by p<0.05.

In the data set with LAD2 human mast cells [1] (10 μM, no other trigger), `[Cl][Hg][Cl]` [HgCl2, Mercury chloride] displayed a VEGF release of 488±76 pg/106 cells. In the data set on LAD2 human mast cells [1] (setting [4]), the “SP-induced VEGF release” value was found to be 553±63 pg/106 cells.
As to `O=c1cc(-c2ccc(O)c(O)c2)oc2cc(O)cc(O)c12` [luteolin, 5,7,3′,4′-tetrahydroxyflavone], in the data set on Male BALB/6 mice (pretreatment with luteolin 40 mg/kg body weight mixed in olive kernel extract, NT 500 nmol/kg ip), the “inhibition of NT-induced brain blood vessel leakage” value is recorded as “completely inhibited”. Moreover, the “inhibition of brain blood vessel leakage induced by IL-33 and NT” value with Male BALB/6 mice (pretreatment with the same amount of luteolin (40 mg/kg), IL-33 1 microg/mouse plus NT) came out at 50%. Moreover, the inhibition – broadly, how much of the control response was suppressed – at 100 µM with LAD2 human mast cells [1] (HgCl2 10 μM, read-out: inhibition of HgCl2-stimulated VEGF release) was 100%; in the data set with LAD2 human mast cells [1] (thimerosal 10 μM, read-out: inhibition of thimerosal-stimulated VEGF release), 100%. For the same molecule, in data set [2], the “inhibition of release of extracellular mt components from mast cells” value is reported as “can be inhibited”.
As to `O=c1c(O)c(-c2ccc(O)c(O)c2)oc2cc(O)cc(O)c12` [Quercetin], in the data set with mast cells, 10 µM produced 80% inhibition.
On to `C[CH2][Hg][S]c1ccccc1C(=O)[O-].[Na+]` [thimerosal], for which, in the data set with LAD2 human mast cells [3], the decrease of viability result is “less than 10%”. The VEGF release stood at 326±12 pg/106 cells in the data set with LAD2 human mast cells [1] (1 μM, no other trigger) and 335±12 pg/106 cells with LAD2 human mast cells [1] (10 μM, no other trigger). For the same molecule, in the data set with LAD2 human mast cells [1] (setting [4]), the “SP-induced VEGF release” value stood at 274.5±35 pg/106 cells.
As to “Substance P (RPKPQQFFGLM-NH2; ends and bridges not checked; UniProt P20366 58-68, looked up) [SP, neuropeptide, non-allergic mast cell trigger]”, the VEGF release in the data set with LAD2 human mast cells [1] (SP 2 μM alone) was 445±16 pg/106 cells and 413.72±18 pg/106 cells.
Take `COC(=O)c1ccccc1S` [Methyl thiosalicylate, methyl thiosalicylate]: the “SP-induced VEGF release” value turned out to be 281.63±24 pg/106 cells with LAD2 human mast cells [1] (substance 1 μM added together with SP (2 μM)) and 185.85±23 pg/106 cells with LAD2 human mast cells [1] (setting [4]). Moreover, the “HgCl2-induced VEGF release” value in the data set with LAD2 human mast cells [1] (substance 1 μM added with HgCl2 (10 μM)) is 258±29 pg/106 cells; with LAD2 human mast cells [1] (substance 10 μM added with HgCl2 (10 μM)), 249.5±24 pg/106 cells.

B1: IL-33: interleukin-33, cytokine injected intraperitoneally (protein, UniProt O95760 1-270, looked up)
Interleukin-33: MKPKMKYSTNKISTAKWKNTASKALCFKLGKSQQKAKEVCPMYFMKLRSGLMIKKEACYFRRETTKRPSLKTGRKHKRHLVLAACQQQSTVECFAFGISGVQKYTRALHDSSITGISPITEYLASLSTYNDQSITFALEDESYEIYVEDLKKDEKKDKVLLSYYESQHPSNESGDGVDGKMLMVTLSPTKDFWLHANNKEHSVELHKCEKPLPDQAFFVLHNMHSNCVSFECKTDPGVFIGVKDNHLALIKVDSSENLCTENILFKLSET
With B1, the brain leakage result in the data set on Male BALB/6 mice (IL-33 1 microg/mouse, alone or with NT, Evans blue extravasation) was “no effect”.
